Results: patent publication US20260048205A1, “SYSTEMS AND METHODS FOR MIXING SYRINGE VALVE ASSEMBLIES AND SYRINGE FORMULATIONS” (Tolmar International Limited, priority 2024, published 2026)

How the values were obtained:
[1] = assay type: physicochemical
Description: To produce the drug/solvent bulk solution comprising the API (LA), the desired amount of the LA was combined with the solvent N-methyl-2-pyrrolidone (NMP), in the indicated amounts (see individual experiments below). The API and solvent were combined in a glass vial or jar. Jars were mixed using the jar mill, Turbula, or shaker at room temperature until homogeneous. LA is soluble in NMP and can load higher concentrations (at least 40% w/w). After dissolving the API in the organic solvent, the bulk solution was manually filled into syringes and capped with a tip cap. The syringes used for filling were either 1.2 mL male polypropylene syringes, 1.2 mL male cyclic olefin copolymer syringes or 1 mL male cyclic olefin copolymer syringes. In some instances, the two syringes were coupled via the connector prior to packaging. Filled syringes were then packaged in labeled foil pouches or a plastic tray pack with foil lid with a Syringe A (polymer-solvent solution) and a desiccant pack and the pouches were sealed. After filling the syringes with the formulations, they were terminally sterilized with an external radiation dose of more than 15 kGy and less than 60 kGy from irradiation processing (E-beam, Gamma or X-ray). After terminal sterilization, the syringes were stored under refrigerated conditions (e.g., 2-8° C.) or accelerated conditions (>25° C. see individual experiments).

[2] = LA gelation studies; assay type: physicochemical; details: drug solution in NMP; e-beam irradiated; 60° C., 150 rpm, up to 16 days
Description: Drug solutions were prepared as described above and filled into syringes or glass vials. Syringes were untreated, contained various amounts of silicone, or were plasma coated for lubrication. Samples were irradiated by e-beam irradiation at not less than 25 kGy and stored at accelerated conditions of 60° C. with agitation at 150 rpm for up to 16 days. Samples were inspected periodically to determine if the drug solution remained a solution or had formed a solid/gel by an inversion test. Samples that had “gelled” were transferred to 5° C. for subsequent testing. The gelation rate for each sample was calculated as Rate=1/(simulated 5° C. age at time of gelation in days). The Arrhenius equation was used to determine the simulated age, assuming standard reaction rate doubling for every 10° C. increase in temperature. […] Data was analyzed using JMP. […] Container type and lubrication were not significant. Samples were tested for leuprolide content by HPLC. Leuprolide content was then converted to leuprolide acetate by multiplying by 1.078 (based on molecular mass ratios). A marked difference in leuprolide acetate content between the gelled and non-gelled samples was seen, with the tipping point between solution and solid/gelled samples occurring at about 45% LA.

solubility / loading in NMP [1]: at least 40 % w/w | tipping point between solution and solid/gelled samples [2]: about 45 % LA
Structure (SMILES): CCNC(=O)[C@@H]1CCCN1C(=O)[C@H](CCCNC(=N)N)NC(=O)[C@H](CC(C)C)NC(=O)[C@@H](CC(C)C)NC(=O)[C@H](Cc1ccc(O)cc1)NC(=O)[C@H](CO)NC(=O)[C@H](Cc1c[nH]c2ccccc12)NC(=O)[C@H](Cc1c[nH]cn1)NC(=O)[C@@H]1CCC(=O)N1 [LA, leuprolide acetate]
